Source: publication PMC8162404, “Proteomimetic surface fragments distinguish targets by function” (Chemical Science, 2020)

Legend:
Gal-1 [1] = target: T1, Gal-1 (Homo sapiens, UniProt P09382); assay: Pull-down assay with immobilized protein and LSM libraries; assay type: binding; conditions: H14 library; 1:1 binding assumed; read-out: Surface mapping KD (apparent)
T1 construct: made in house; host or cells: E. coli BL21(DE3)
How it was run: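 His-tagged protein immobilized on Co-NTA resin (64 µM) in 20 mM HEPES pH 7.4, 150 mM NaCl, equilibrated 30 min at room temperature with foldamer LSM sublibraries at equimolar total concentration. Unbound fractions quantified by HPLC-MS versus protein-free resin control; apparent KD assumes 1:1 binding.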

S100A4 = target: T2, S100A4 (Homo sapiens, UniProt P26447); assay: as above; assay type: binding; conditions: H14 library; 1:1 binding assumed; read-out: Surface mapping KD (apparent)
T2 construct: made in house; host or cells: Escherichia coli BL21(DE3)
How it was run: (§1)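 Buffers were HEPES pH 7.4 with 150 mM NaCl, plus 1 mM TCEP and 1 mM CaCl2 (50 mM HEPES) for S100A4 and S100B, 1 mM TCEP for Gal-1, and no additive for RecQ-WH. Immobilized protein at 64 µM was equilibrated 30 min with the LSM sublibrary, and unbound probes were measured by LC-MS.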

Gal-1 [2] = target: T1, Gal-1; assay: Competition pull-down with lactose; assay type: binding; conditions: H14 library; lactose 10 mM; read-out: Surface mapping KD (apparent), competition
Method: Interactions between the H14 helical LSMs and the targets were abundant, but safe recognition of the native PPI interfaces on the targets is a criterion of druggability. To gain insight into the ability of the LSMs to detect orthosteric spots, we carried out pull-down assays in the presence of the native ligands (Table 2) of the targets (Fig. 5). For highlighting the effect of the competitor on the binding fingerprints, KD ratios and the LSM replacement percentages were calculated and are represented as heat maps (see ESI, Fig. S7 ^†). […] This could be explained by the glycan selective native recognition domain of the protein. We note that the replacement pattern for a single probe can, in theory, be complex. […] Moreover, a single probe can bind to both orthosteric and non-orthosteric spots, which limits overall displacement levels. To avoid overlooking interesting orthosteric weak binders, direct replacement levels were assessed (see ESI, Fig. S7 ^†).
Pull-down assay and data analysis
Pull-down assay. LSM sublibraries were screened separately as previously described.(2) Experiments were performed in the following buffers: (i) 20 mM pH 7.4 HEPES, 150 mM NaCl, 5 mM CaCl2 for CaM; (ii) 50 mM pH 7.4 HEPES, 150 mM NaCl, 1 mM TCEP, 1 mM CaCl2 for S100 proteins; (iii) 20 mM pH 7.4 HEPES, 150 mM NaCl, 1 mM TCEP for Gal-1 and (iv) 20 mM pH 7.4 HEPES, 150 mM NaCl for RecQ-WH. Assays were performed in paper filter spin cups (Thermo Scientific) with sample volumes of 100 µl. Hexahistidine-tagged proteins were immobilized on previously washed Co-NTA resin (TALON, Takara Bio USA, Inc., Mountain View, CA) in 64 µM final concentration. LSM sublibrary was added, in which each of the 64 library members were used at a concentration of 1 µM. Samples were incubated at room temperature for 30 min with shaking at 100 rpm. Then, samples were centrifuged at 1000 rpm for 2 min and washed with 100 µl pull-down buffer to remove unbound compounds.
The control experiments were performed using the same compounds and the resin but without the immobilized protein. In case of competitive assays, competitor peptides were added to LSM sublibrary samples in 200 µM final concentration. In the case of Gal-1, lactose (competitor) was used in a concentration of 10 mM. Experiments were performed at least twice. Mean […]
LC-MS methods and parameters. HPLC/ESI-MS analysis was used to characterize the samples from the pull-down assay. LC-MS analysis was performed with a Thermo Scientific Dionex UltiMate 3000 HPLC system interfaced to an LTQ ion trap mass spectrometer (Thermo Electron Corp., San Jose, CA, USA). Samples were injected onto an Aeris Widepore XB-C18 (250 x 4.6 mm) analytical HPLC column using gradient elution 5-80 % solution B during 25 minutes. For pull-down samples, eluent composition was 0.1% acetic acid in distilled water (Solution A) and 0.1% acetic acid in acetonitrile (solution B). Mass spectra were acquired in full scan mode from 200 to 2000 m/z range. For overlapping peaks, selective reaction monitoring (SRM) was […]
MS data analysis. Thermo Xcalibur 2.2 software was used for peak identification and integration. The majority of the foldameric fragments could be resolved independently via HPLC-MS/MS measurements based on molecular weight, MS fragmentation pattern and retention time. Peaks of some foldamers with β3-hIle or β3-hLeu in position R2 could not be resolved, these were integrated and averaged. In the processing method, each sample component was associated to a chromatographic peak based on previously identified mass (m/z) and retention time (ref (2) and Table S7-10). Using ICIS peak detection algorithm, the general detection and integration criteria were: smoothing points: 5, baseline window: 80, area noise factor: 5, peak noise factor: 10. Using these processing setups, all raw data files were reprocessed together and analyzed. Errors in peak identification during the automatic processing were corrected manually.
Calculation of the discussed parameters […]

CaM [3] = target: T3, CaM (Bos taurus, UniProt P62157); assay: Competition pull-down with native ligand TRPV1-Ct15; assay type: binding, bovine; conditions: H14 library; competitor peptide 200 µM; read-out: Surface mapping KD (apparent), competition
T3 construct: made in house; host or cells: E. coli BL21 (DE3)

S100B = target: T4, S100B (Homo sapiens, UniProt P04271); assay: Pull-down assay with immobilized protein and LSM libraries; assay type: binding; conditions: H14 library; 1:1 binding assumed; read-out: Surface mapping KD (apparent)
T4 construct: made in house; host or cells: Escherichia coli BL21(DE3)
T4 sequence (P04271 1-92): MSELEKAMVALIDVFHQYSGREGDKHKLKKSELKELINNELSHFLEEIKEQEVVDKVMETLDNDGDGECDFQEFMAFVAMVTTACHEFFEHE
How it was run: as §1

CaM [4] = target: T3, CaM; assay: as above; assay type: binding, bovine; conditions: H14 library; 1:2 stoichiometry assumed; read-out: Surface mapping KD (apparent)
How it was run: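 His-tagged protein immobilized on Co-NTA resin, equilibrated 30 min at room temperature with LSM sublibraries (64 members, […]), equimolar protein to total probe. CaM buffer: 20 mM HEPES pH 7.4, 150 mM NaCl, 5 mM CaCl2. Bound fractions from HPLC-MS loss of unbound probe versus protein-free resin control; Kd derived.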

T1 sequence (P09382 whole entry): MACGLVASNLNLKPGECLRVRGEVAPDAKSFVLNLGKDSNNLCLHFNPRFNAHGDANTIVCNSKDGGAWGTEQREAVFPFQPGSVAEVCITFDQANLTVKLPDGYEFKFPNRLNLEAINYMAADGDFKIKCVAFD
T2 sequence (P26447 whole entry): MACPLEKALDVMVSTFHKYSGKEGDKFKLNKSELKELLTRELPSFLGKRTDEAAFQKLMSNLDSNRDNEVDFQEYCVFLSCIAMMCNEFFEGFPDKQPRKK

Row | Compound | Kd (Gal-1 [2]) | Kd (CaM [4]) | further results
1 | C[C@@H](CC(=O)N[C@H]1CCCC[C@@H]1C(=O)N[C@H]1CCCC[C@@H]1C(=O)N[C@H](CC(=O)N[C@H]1CCCC[C@@H]1C(N)=O)[C@@H](C)O)NC(=O)[C@H]1CCCC[C@@H]1N [H14 AT] | 416 µM |  | Kd (Gal-1 [1]): 443 µM; Kd (S100A4): 356 µM
2 | NC(=O)[C@H]1CCCC[C@@H]1NC(=O)C[C@H](CC(=O)O)NC(=O)[C@H]1CCCC[C@@H]1NC(=O)[C@H]1CCCC[C@@H]1NC(=O)C[C@H](CC(=O)O)NC(=O)[C@H]1CCCC[C@@H]1N [H14 DD] |  |  | Kd (CaM [3]): 447 µM
3 | NC(=O)[C@H]1CCCC[C@@H]1NC(=O)C[C@H](CCC(=O)O)NC(=O)[C@H]1CCCC[C@@H]1NC(=O)[C@H]1CCCC[C@@H]1NC(=O)C[C@H](CC(=O)O)NC(=O)[C@H]1CCCC[C@@H]1N [H14 DE] | 318 µM |  | 
4 | NC(=O)CC[C@@H](CC(=O)N[C@H]1CCCC[C@@H]1C(N)=O)NC(=O)[C@H]1CCCC[C@@H]1NC(=O)[C@H]1CCCC[C@@H]1NC(=O)C[C@H](CC(=O)O)NC(=O)[C@H]1CCCC[C@@H]1N [H14 DQ] |  |  | Kd (CaM [3]): 212 µM
5 | NC(=O)[C@H]1CCCC[C@@H]1NC(=O)C[C@H](CO)NC(=O)[C@H]1CCCC[C@@H]1NC(=O)[C@H]1CCCC[C@@H]1NC(=O)C[C@H](CC(=O)O)NC(=O)[C@H]1CCCC[C@@H]1N [H14 DS] | 415 µM |  | 
6 | C[C@@H](O)[C@@H](CC(=O)N[C@H]1CCCC[C@@H]1C(N)=O)NC(=O)[C@H]1CCCC[C@@H]1NC(=O)[C@H]1CCCC[C@@H]1NC(=O)C[C@H](CC(=O)O)NC(=O)[C@H]1CCCC[C@@H]1N [H14 DT] | 282 µM |  | 
7 | CC(C)[C@@H](CC(=O)N[C@H]1CCCC[C@@H]1C(N)=O)NC(=O)[C@H]1CCCC[C@@H]1NC(=O)[C@H]1CCCC[C@@H]1NC(=O)C[C@H](CC(=O)O)NC(=O)[C@H]1CCCC[C@@H]1N [H14 DV] | 316 µM |  | 
8 | NC(=O)[C@H]1CCCC[C@@H]1NC(=O)C[C@H](CC(=O)O)NC(=O)[C@H]1CCCC[C@@H]1NC(=O)[C@H]1CCCC[C@@H]1NC(=O)C[C@H](CCC(=O)O)NC(=O)[C@H]1CCCC[C@@H]1N [H14 ED] | 318 µM |  | 
9 | NC(=O)[C@H]1CCCC[C@@H]1NC(=O)C[C@H](CCC(=O)O)NC(=O)[C@H]1CCCC[C@@H]1NC(=O)[C@H]1CCCC[C@@H]1NC(=O)C[C@H](CCC(=O)O)NC(=O)[C@H]1CCCC[C@@H]1N [H14 EE] | 353 µM |  | 
10 | NC(=O)C[C@@H](CC(=O)N[C@H]1CCCC[C@@H]1C(N)=O)NC(=O)[C@H]1CCCC[C@@H]1NC(=O)[C@H]1CCCC[C@@H]1NC(=O)C[C@H](CCC(=O)O)NC(=O)[C@H]1CCCC[C@@H]1N [H14 EN] | 453 µM |  | 
11 | NC(=O)CC[C@@H](CC(=O)N[C@H]1CCCC[C@@H]1C(N)=O)NC(=O)[C@H]1CCCC[C@@H]1NC(=O)[C@H]1CCCC[C@@H]1NC(=O)C[C@H](CCC(=O)O)NC(=O)[C@H]1CCCC[C@@H]1N [H14 EQ] | 443 µM |  | 
12 | NC(=O)[C@H]1CCCC[C@@H]1NC(=O)C[C@H](CO)NC(=O)[C@H]1CCCC[C@@H]1NC(=O)[C@H]1CCCC[C@@H]1NC(=O)C[C@H](CCC(=O)O)NC(=O)[C@H]1CCCC[C@@H]1N [H14 ES] | 282 µM |  | 
13 | C[C@@H](CC(=O)N[C@H]1CCCC[C@@H]1C(N)=O)NC(=O)[C@H]1CCCC[C@@H]1NC(=O)[C@H]1CCCC[C@@H]1NC(=O)C[C@H](CCCCN)NC(=O)[C@H]1CCCC[C@@H]1N [H14 KA] | 465 µM | 318 µM | Kd (S100B): 319 µM
14 | NCCCC[C@@H](CC(=O)N[C@H]1CCCC[C@@H]1C(N)=O)NC(=O)[C@H]1CCCC[C@@H]1NC(=O)[C@H]1CCCC[C@@H]1NC(=O)C[C@H](CCCCN)NC(=O)[C@H]1CCCC[C@@H]1N [H14 KK] | 298 µM | 49 µM | Kd (S100B): 53 µM
15 | NCCCC[C@@H](CC(=O)N[C@H]1CCCC[C@@H]1C(=O)N[C@H]1CCCC[C@@H]1C(=O)N[C@@H](CC(N)=O)CC(=O)N[C@H]1CCCC[C@@H]1C(N)=O)NC(=O)[C@H]1CCCC[C@@H]1N [H14 KN] | 278 µM | 455 µM | Kd (S100B): 195 µM
16 | C[C@@H](O)[C@@H](CC(=O)N[C@H]1CCCC[C@@H]1C(N)=O)NC(=O)[C@H]1CCCC[C@@H]1NC(=O)[C@H]1CCCC[C@@H]1NC(=O)C[C@H](CCCCN)NC(=O)[C@H]1CCCC[C@@H]1N [H14 KT] | 370 µM | 242 µM | Kd (S100B): 194 µM
17 | CSCC[C@@H](CC(=O)N[C@H]1CCCC[C@@H]1C(=O)N[C@H]1CCCC[C@@H]1C(=O)N[C@@H](CCCCN)CC(=O)N[C@H]1CCCC[C@@H]1C(N)=O)NC(=O)[C@H]1CCCC[C@@H]1N [H14 MK] | 149 µM | 33 µM | Kd (Gal-1 [1]): 133 µM; Kd (S100A4): 339 µM; Kd (S100B): 125 µM
18 | C[C@@H](CC(=O)N[C@H]1CCCC[C@@H]1C(N)=O)NC(=O)[C@H]1CCCC[C@@H]1NC(=O)[C@H]1CCCC[C@@H]1NC(=O)C[C@H](CC(N)=O)NC(=O)[C@H]1CCCC[C@@H]1N [H14 NA] |  | 185 µM | Kd (CaM [3]): 399 µM
19 | NC(=O)C[C@@H](CC(=O)N[C@H]1CCCC[C@@H]1C(=O)N[C@H]1CCCC[C@@H]1C(=O)N[C@@H](CCC(=O)O)CC(=O)N[C@H]1CCCC[C@@H]1C(N)=O)NC(=O)[C@H]1CCCC[C@@H]1N [H14 NE] |  | 254 µM | Kd (Gal-1 [1]): 378 µM; Kd (CaM [3]): 414 µM
20 | NC(=O)CC[C@@H](CC(=O)N[C@H]1CCCC[C@@H]1C(=O)N[C@H]1CCCC[C@@H]1C(=O)N[C@@H](CC(=O)O)CC(=O)N[C@H]1CCCC[C@@H]1C(N)=O)NC(=O)[C@H]1CCCC[C@@H]1N [H14 QD] |  | 231 µM | Kd (Gal-1 [1]): 379 µM; Kd (CaM [3]): 349 µM
21 | N=C(N)NCCC[C@@H](CC(=O)N[C@H]1CCCC[C@@H]1C(=O)N[C@H]1CCCC[C@@H]1C(=O)N[C@@H](CCC(N)=O)CC(=O)N[C@H]1CCCC[C@@H]1C(N)=O)NC(=O)[C@H]1CCCC[C@@H]1N [H14 RQ] | 421 µM | 326 µM | Kd (S100B): 116 µM
22 | NC(=O)[C@H]1CCCC[C@@H]1NC(=O)C[C@H](CC(=O)O)NC(=O)[C@H]1CCCC[C@@H]1NC(=O)[C@H]1CCCC[C@@H]1NC(=O)C[C@H](Cc1ccc(O)cc1)NC(=O)[C@H]1CCCC[C@@H]1N [H14 YD] | 177 µM |  | Kd (Gal-1 [1]): 119 µM
